These results are taken from ChEMBL document CHEMBL4732045, “Amide Bond Bioisosteres: Strategies, Synthesis, and Successes” (J Med Chem, 2020).

The target of experiment [1] is T1, Human immunodeficiency virus type 1 protease (Human immunodeficiency virus 1, UniProt Q72874). Description: Inhibition of HIV1 protease.
In experiment [2] the target is Cannabinoid receptor 1 (Homo sapiens, UniProt P21554). Description: Displacement of [3H]CP-55940 from human CB1 receptor expressed in HEK cells by competitive binding assay. It counts as cell-based. For orientation: Displacement assays read how much labelled ligand stays bound in the presence of the test substance.
Sequence of Cannabinoid receptor 1 (P21554 whole entry): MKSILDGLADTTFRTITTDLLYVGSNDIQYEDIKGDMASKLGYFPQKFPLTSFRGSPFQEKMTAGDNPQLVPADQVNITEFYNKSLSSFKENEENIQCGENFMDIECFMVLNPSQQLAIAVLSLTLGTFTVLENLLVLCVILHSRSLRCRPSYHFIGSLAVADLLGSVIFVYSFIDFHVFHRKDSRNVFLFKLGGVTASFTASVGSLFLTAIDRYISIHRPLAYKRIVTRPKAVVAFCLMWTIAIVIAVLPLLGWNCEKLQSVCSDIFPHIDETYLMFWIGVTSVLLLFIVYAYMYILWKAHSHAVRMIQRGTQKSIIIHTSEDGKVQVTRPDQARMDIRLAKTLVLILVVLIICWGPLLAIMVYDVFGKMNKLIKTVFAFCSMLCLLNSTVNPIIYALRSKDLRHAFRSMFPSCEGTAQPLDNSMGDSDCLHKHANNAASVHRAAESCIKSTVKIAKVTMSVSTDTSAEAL
For experiment [3], the target named is T1, Human immunodeficiency virus type 1 protease. Description: Inhibition of HIV-1 protease.
In experiment [4] the test system is Mus musculus. Description: Immunosuppressive activity in B6D2F1 mouse model of graft-versus-host disease assessed as mean survival days at 3 mg/kg, ip administered for day 1 to day 10 (day 6 omitted) and measured at day 60. As to conditions: time 60 day. It counts as functional.
The test system of experiment [5] is Rattus norvegicus. Description: Immunosuppressive activity in Lewis rat model of Heart Allotransplantation assessed as mean survival days at 6 mg/kg, ip administered for 10 days by Manntel-Haenszel test. The format is functional. As to conditions: time 10 day.
For experiment [6], the system named is Mus musculus. Description: Immunosuppressive activity in B6D2F1 mouse model of graft-versus-host disease assessed as mean survival days at 1 mg/kg, ip administered for day 1 to day 10 (day 6 omitted) and measured at day 60. The format is functional. As to conditions: time 60 day.
Experiment [7] concerns the target Integrin alpha-4/beta-1 (Homo sapiens, UniProt P05556+P13612). Description: Displacement of 125I-VCAM-Ig from VLA4 in human Jurkat cells incubated for 30 mins by scintillation counting method. It counts as cell-based.
Experiment [8] has as its system MDA-MB-231. Description: Antiproliferative activity against human MDA-MB-231 cells. The format is functional, cell-based.
For experiment [9], the system named is L1210. Description: Antiproliferative activity against mouse L1210 cells incubated for 48 hrs by Coulter counter method. The format is functional, cell-based. To be noted: L1210, 48 h.
The subject of experiment [10] is CCRF-CEM. Description: Antiproliferative activity against human CEM cells incubated for 96 hrs by Coulter counter method. The format is functional, cell-based.
The nature of experiment [11]: Growth inhibition of BAEC incubated for 3 days by Coulter counter method. To be noted: Bos taurus, 72 h.
The test system of experiment [12] is HeLa. Description: Antiproliferative activity against human HeLa cells incubated for 4 days by Coulter counter method. As to conditions: 96 h. The format is functional, cell-based.
Experiment [13] deals with HMEC-1. Description: Growth inhibition of HMEC-1 incubated for 4 days by Coulter counter method. As to conditions: Homo sapiens, HMEC-1, 96 h. The format is cell-based.
For experiment [14], the target named is D(2) dopamine receptor (Bos taurus) (UniProt P20288). Description: Modulation of [3H]Spiroperidol/N-Propylnorapomorphine binding to dopamine D2 receptor in bovine striatal membranes incubated for 1 hr by Cheng-Prusoff analysis. The format is cell membranes. As to conditions: Striatum, Membrane, filed as modulator.
Sequence of D(2) dopamine receptor (Bos taurus) (P20288 whole entry): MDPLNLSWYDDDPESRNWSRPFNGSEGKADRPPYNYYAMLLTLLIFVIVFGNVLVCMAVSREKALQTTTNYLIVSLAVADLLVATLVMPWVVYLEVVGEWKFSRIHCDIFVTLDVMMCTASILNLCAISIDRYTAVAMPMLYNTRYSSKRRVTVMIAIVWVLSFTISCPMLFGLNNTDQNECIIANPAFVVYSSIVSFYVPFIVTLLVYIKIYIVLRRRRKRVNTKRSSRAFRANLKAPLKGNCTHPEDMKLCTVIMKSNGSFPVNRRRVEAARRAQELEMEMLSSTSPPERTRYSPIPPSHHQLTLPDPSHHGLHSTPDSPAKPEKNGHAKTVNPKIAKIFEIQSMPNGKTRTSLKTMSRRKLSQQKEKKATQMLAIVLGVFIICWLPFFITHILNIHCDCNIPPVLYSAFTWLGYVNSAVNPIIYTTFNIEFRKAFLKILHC
For experiment [15] the target is unchanged. Description: Modulation of [3H]Spiroperidol/N-Propylnorapomorphine binding to dopamine D2 receptor in bovine striatal membranes incubated for 1 hr in presence of Gpp(NH)p by Cheng-Prusoff analysis. The format is cell membranes. As to conditions: Striatum, Membrane, filed as modulator.
In experiment [16] the test system is HT-29. Description: Cytotoxicity against human HT-29 cells incubated for 96 hrs by MTT assay. It counts as functional, cell-based. To be noted: HT-29, 96 h. (In general: Tetrazolium dyes change colour on reduction, which living cells bring about.)
The subject of experiment [17] is PC-3. Description: Cytotoxicity against human PC-3 cells incubated for 96 hrs by MTT assay. As to conditions: PC-3, 96 h. The format is functional, cell-based.
Experiment [18] relates to CAKI-2. Description: Cytotoxicity against human Caki-2 cells incubated for 96 hrs by MTT assay. The format is functional, cell-based. As to conditions: CAKI-2, 96 h.
In experiment [19] the test system is HL-60. Description: Cytotoxicity against human HL-60 cells incubated for 96 hrs by MTT assay. It counts as functional, cell-based. As to conditions: HL-60, 96 h.
Experiment [20] deals with A549. Description: Cytotoxicity against human A549 cells incubated for 96 hrs by MTT assay. It counts as functional, cell-based. As to conditions: A549, 96 h.
A short description of experiment [21]: Inhibition of ACAT in cholesterol-fed New Zealand rabbit intestional microsomes using [1-14C]oleoyl-CoA as substrate preincubated for 5 mins followed by substrate addition and measured after 5 mins by liquid scintillation counting method. Also noted: species or system Oryctolagus cuniculus, Intestine, Microsome.
The subject of experiment [22] is Human immunodeficiency virus 1. Description: Antiviral activity against HIV1 3b isolate infected in human MT4 cells assessed as blockade of viral spread pretreated for 24 hrs followed by viral infection and subsequently treated with compound every 2 to 3 days post infection by ELISA. The format is functional. To be noted: Human immunodeficiency virus 1, 3b isolate, read-out: CIC95. (In general: In an ELISA, binding on a coated surface is turned into a signal by an enzyme label.)

A short description of experiment [23]: Inhibition of HIV2 protease. Also noted: species or system Human immunodeficiency virus 2.
Experiment [24] has as its system Poly(dG-dC)oligonucleotide. Description: Binding affinity to poly (dG-dC) (unknown origin) by ethidium displacement assay. The format is nucleic-acid assay.
The test system of experiment [25] is Poly(dA-dT)oligonucleotide. Description: Binding affinity to poly (dA-dT) (unknown origin) by ethidium displacement assay. It counts as nucleic-acid assay.

Where only a bound is given, the exact number is not on record here.

Sequence of Integrin alpha-4/beta-1 (P05556 whole entry): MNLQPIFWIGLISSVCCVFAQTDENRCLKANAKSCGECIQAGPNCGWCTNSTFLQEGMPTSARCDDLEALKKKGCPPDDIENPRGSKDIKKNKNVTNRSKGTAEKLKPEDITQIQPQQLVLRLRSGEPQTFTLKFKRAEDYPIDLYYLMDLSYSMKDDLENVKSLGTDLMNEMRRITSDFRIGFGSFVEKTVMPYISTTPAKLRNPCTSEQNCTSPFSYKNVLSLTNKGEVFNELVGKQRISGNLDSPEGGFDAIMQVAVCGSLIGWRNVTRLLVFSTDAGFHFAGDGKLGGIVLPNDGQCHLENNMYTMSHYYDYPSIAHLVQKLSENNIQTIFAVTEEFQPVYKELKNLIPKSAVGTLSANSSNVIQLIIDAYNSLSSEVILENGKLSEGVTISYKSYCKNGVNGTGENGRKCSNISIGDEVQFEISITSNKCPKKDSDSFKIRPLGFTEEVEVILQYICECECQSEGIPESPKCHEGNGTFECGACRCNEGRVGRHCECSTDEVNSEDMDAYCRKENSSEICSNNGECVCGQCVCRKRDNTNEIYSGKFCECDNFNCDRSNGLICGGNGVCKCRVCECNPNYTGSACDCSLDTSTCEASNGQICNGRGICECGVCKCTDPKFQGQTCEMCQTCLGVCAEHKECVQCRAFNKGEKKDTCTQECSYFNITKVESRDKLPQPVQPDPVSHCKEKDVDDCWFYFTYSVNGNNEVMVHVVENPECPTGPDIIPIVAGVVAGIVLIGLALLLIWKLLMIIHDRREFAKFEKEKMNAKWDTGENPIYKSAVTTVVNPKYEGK
Sequence of Integrin alpha-4/beta-1 (P13612 whole entry): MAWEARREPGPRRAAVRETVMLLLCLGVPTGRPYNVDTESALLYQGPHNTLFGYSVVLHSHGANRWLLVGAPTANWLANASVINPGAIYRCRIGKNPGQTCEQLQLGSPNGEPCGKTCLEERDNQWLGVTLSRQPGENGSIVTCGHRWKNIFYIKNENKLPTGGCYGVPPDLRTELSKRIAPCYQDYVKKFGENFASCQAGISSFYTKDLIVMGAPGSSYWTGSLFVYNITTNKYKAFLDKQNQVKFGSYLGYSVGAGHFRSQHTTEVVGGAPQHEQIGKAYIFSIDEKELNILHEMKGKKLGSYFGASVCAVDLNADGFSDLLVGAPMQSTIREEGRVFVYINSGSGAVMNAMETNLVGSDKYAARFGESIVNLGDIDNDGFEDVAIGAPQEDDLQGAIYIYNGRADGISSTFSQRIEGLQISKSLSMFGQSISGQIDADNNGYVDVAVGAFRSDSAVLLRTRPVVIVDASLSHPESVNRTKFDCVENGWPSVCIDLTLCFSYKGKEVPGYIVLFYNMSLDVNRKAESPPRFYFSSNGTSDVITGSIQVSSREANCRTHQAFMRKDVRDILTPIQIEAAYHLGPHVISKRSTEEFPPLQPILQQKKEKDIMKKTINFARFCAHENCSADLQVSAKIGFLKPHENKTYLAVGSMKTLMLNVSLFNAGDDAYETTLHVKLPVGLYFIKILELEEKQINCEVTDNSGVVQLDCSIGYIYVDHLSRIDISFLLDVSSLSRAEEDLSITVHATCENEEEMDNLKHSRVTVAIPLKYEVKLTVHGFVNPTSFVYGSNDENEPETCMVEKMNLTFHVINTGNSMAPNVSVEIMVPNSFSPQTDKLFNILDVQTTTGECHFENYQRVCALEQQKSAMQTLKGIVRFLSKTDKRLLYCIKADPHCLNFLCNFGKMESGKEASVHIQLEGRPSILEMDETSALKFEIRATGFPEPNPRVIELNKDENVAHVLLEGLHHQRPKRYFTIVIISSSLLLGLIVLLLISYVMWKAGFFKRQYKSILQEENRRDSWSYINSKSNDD

One may read the IC50 as the concentration needed to halve the response being measured. Higher therefore signals lower potency. The compound `CC(C)(C)NC(=O)[C@@H]1C[C@@H]2CCCC[C@@H]2CN1C[C@@H](O)[C@H](Cc1ccccc1)NC(=O)OC(C)(C)C` came in with an IC50 in experiment [1] of at least 3 µM.

In general, Ki refers to a dissociation constant, usually derived from enzyme kinetics or from competition with a known ligand. The compound `CCCCCn1cc(-c2cn(C34CC5CC(CC(C5)C3)C4)nn2)c(=O)c2cc(-c3ccco3)ccc21` came in with a Ki in [2] above 10 µM.

On to `CC(C)C(NC(=O)C[C@@H]1O[C@@H]1[C@H](Cc1ccccc1)NC(=O)[C@H](CC(N)=O)NC(=O)c1ccc2ccccc2n1)C(C)C`, for which, in [3], the midpoint of inhibition, the IC50, lay at 0.02 µM.

`CC(C)(C)NS(=O)(=O)CC[C@@H]1O[C@@H]1[C@H](Cc1ccccc1)NOC(=O)CCC(=O)NC(=O)c1ccc2ccccc2n1` displayed an IC50 in experiment [3] of 0.03 µM.

With `N=C(N)NCCCCCCC(=O)NC(O)C(=O)NCCCCNCCCN` (configuration not stated), the Survival in [4] is 57 days; in experiment [5] it was 38 days; in experiment [6], 38 days.

Turning to `COc1cccc(OC)c1-c1ccc(C[C@H](N=C(NCC(F)(F)F)[C@@H]2CCN2S(=O)(=O)c2ccccc2)C(=O)O)cc1`, the half-inhibitory concentration (IC50) in experiment [7] is 0.00013 µM.

The compound `O=C(OCc1ccc2c(c1)OCO2)c1ccc(Cl)c(Cl)c1` registered an IC50 in experiment [8] of at least 200 µM.

In [7], `COc1cccc(OC)c1-c1ccc(C[C@H](N=C(N)[C@@H]2CCN2S(=O)(=O)c2ccccc2)C(=O)O)cc1` displayed an IC50 of 0.0001 µM.

As to `CS(=O)(=O)c1ccc(C(=O)Nc2ccc(Cl)c(-c3ccccn3)c2)c(Cl)c1` [VISMODEGIB], the IC50 in experiment [9] worked out at 49 µM; in [10], 58 µM; in experiment [11], 50 µM; in [12], 64 µM; in experiment [13] it was 41 µM.

As for `NC(=O)CN1CC[C@@H](N2CC(=O)N3CCC[C@H]3C2=O)C1=O`, in [14], the KiH stood at 0.08 nM and the KiL is 69 nM. Besides, in experiment [15], the KiH is 0.19 nM and the KiL came out at 50 nM.

`CCCCCCCCCCCCNC(=O)N[C@@H](CO)[C@H](O)c1ccc([N+](=O)[O-])cc1`: the half-inhibitory concentration (IC50) is 55 µM in experiment [16]; 36 µM in experiment [17]; 80 µM in [18]; 30 µM in experiment [19]; 60 µM in experiment [20].

For `NCCCNCCCCNC(=O)NCC(=O)NCCCCCCN=C(N)N`, the results for the Survival in experiment [4], in [5] and in experiment [6] were 48 days, 12 days and 42 days, respectively.

Turning to `CCN(C(C)C)S(=O)(=O)CC[C@@H]1O[C@@H]1[C@H](Cc1ccccc1)NC(=O)[C@H](CC(C)(C)S(C)(=O)=O)NC(=O)c1ccc2ccccc2n1`, the IC50 in [3] was 0.0066 µM.

With `CC(C)c1cccc(C(C)C)c1NC(=O)NCCCCCc1ccccc1`, the half-maximal inhibitory concentration (IC50) in experiment [21] stood at 0.017 µM.

As for `NCCCNCCCCNC(=O)CC(=O)NCCCCCCN=C(N)N`, the Survival in [4] amounted to 52 days; in [5], 9 days; in [6], 53 days.

On to `CC(C)(C)NC(=O)[C@@H]1C[C@@H]2CCCC[C@@H]2CN1C[C@@H](O)[C@H](Cc1ccccc1)NC(=O)[C@@H](NC(=O)c1ccc2ccccc2n1)[C@@H]1CCOC1`, for which the IC95 in experiment [22] worked out at 0.008 µM. Also, the IC50 in experiment [23] was found to be 0.00024 µM.

Regarding `CC(C)(C)NC(=O)[C@@H]1C[C@@H]2CCCC[C@@H]2CN1C[C@@H](O)[C@H](Cc1ccccc1)NC(=O)[C@H](CC(N)=O)NC(=O)c1ccc2ccccc2n1`, in experiment [22], the IC95 came to 0.022 µM. Further, half-maximal inhibition in experiment [23] (IC50) required 0.0005 µM.

In experiment [14], `NC(=O)[C@H]1CS[C@@H]2C[C@@H](N3CC(=O)N4CCC[C@H]4C3=O)C(=O)N12` had a KiH of 0.098 nM and a KiL of 171 nM. Moreover, in [15], the KiH was 0.14 nM and the KiL was found to be 183 nM.

For the compound `CN(C)CCCNC(=O)c1cc(NC(=O)c2cc(NC(=O)c3cc([N+](=O)[O-])cn3C)cn2C)cn1C`, the Kapp in experiment [24] was 3.5 10^5/M; in [25], 8.7 10^5/M.
